Key:
Melanocortin receptor 4 = Melanocortin receptor 4 (Homo sapiens, UniProt P32245); test: Displacement of [125I]NDP-MSH from human recombinant MC4 receptor expressed in Sf9 cells
Melanocortin receptor 5 = Melanocortin receptor 5 (Homo sapiens, UniProt P33032); test: Displacement of [125I]NDP-MSH from human recombinant MC5 receptor expressed in Sf9 cells
[1] = biological target: Melanocyte-stimulating hormone receptor (Mus musculus, UniProt Q01727); test: Displacement of [125I]NDP-MSH from MC1 receptor in mouse B16 cells; format: cell-based
Melanocortin receptor 3 = Melanocortin receptor 3 (Homo sapiens, UniProt P41968); test: Displacement of [125I]NDP-MSH from human recombinant MC3 receptor expressed in Sf9 cells
Sequence of Melanocortin receptor 3 (P41968 whole entry): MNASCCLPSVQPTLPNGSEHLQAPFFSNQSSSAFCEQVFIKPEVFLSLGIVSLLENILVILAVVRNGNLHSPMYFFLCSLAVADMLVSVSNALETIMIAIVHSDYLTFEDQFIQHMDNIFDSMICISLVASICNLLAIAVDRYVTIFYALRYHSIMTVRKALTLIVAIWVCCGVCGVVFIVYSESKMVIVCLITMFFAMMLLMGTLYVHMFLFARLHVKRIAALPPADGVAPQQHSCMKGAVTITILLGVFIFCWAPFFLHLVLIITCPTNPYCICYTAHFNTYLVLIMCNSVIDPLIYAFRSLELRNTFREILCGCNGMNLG

Sequence of Melanocortin receptor 4 (P32245 whole entry): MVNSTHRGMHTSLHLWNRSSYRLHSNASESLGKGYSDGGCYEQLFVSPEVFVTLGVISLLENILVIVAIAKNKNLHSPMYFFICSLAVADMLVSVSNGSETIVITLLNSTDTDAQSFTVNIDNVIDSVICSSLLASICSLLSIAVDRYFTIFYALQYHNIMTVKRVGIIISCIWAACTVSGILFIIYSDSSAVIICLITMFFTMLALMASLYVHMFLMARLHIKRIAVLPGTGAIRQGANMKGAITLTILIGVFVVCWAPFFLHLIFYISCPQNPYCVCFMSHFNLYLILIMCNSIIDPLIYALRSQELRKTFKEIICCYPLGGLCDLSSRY
Sequence of Melanocyte-stimulating hormone receptor (Q01727 whole entry): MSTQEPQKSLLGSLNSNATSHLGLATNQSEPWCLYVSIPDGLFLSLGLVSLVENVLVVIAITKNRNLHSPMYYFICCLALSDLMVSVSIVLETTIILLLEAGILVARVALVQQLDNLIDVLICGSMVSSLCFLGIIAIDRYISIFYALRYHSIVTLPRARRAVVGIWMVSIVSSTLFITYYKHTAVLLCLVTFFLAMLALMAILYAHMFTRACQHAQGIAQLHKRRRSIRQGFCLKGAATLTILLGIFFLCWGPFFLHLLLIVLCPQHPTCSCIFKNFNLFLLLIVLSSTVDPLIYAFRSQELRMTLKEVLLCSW
Sequence of Melanocortin receptor 5 (P33032 whole entry): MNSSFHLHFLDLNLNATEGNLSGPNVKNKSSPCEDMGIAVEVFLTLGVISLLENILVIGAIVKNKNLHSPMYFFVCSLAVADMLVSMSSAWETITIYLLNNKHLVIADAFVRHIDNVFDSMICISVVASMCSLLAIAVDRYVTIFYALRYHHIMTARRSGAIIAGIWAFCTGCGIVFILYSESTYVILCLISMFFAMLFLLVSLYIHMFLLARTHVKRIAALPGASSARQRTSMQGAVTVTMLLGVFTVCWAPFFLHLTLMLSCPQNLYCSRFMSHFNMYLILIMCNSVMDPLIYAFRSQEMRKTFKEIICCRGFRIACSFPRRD

SMILES	Ki (Melanocortin receptor 4) [µM]	Ki (Melanocortin receptor 5) [µM]	Ki [1] [µM]	Ki (Melanocortin receptor 3) [µM]
NCCN(Cc1ccc2ccccc2c1)C(=O)c1c[nH]c2ccccc12	66	27	3.6	134
NCCCCCN(CCCc1ccccc1)C(=O)CCCc1c[nH]c2ccccc12	–	19	18	61
CC(c1ccc2ccccc2c1)N(CCN)C(=O)Cc1c[nH]c2ccccc12 (stereo not given)	11	19	4.4	11
NCCCCCN(Cc1ccccc1)C(=O)[C@H](N)Cc1ccc([N+](=O)[O-])cc1	96	102	37	162
NCCCCN(C/C=C/c1ccccc1)C(=O)CCc1c[nH]c2ccccc12	18	10	8.3	67
N=C(N)NCCN(Cc1ccc2ccccc2c1)C(=O)CCCc1c[nH]c2ccccc12	179	8.3	8.3	204
NCCCN1CCN(CCCN(C/C(Cl)=C/c2ccccc2)C(=O)CCCc2c[nH]c3ccccc23)CC1	9.2	6.6	4.6	78
COc1cc(Br)c(/C=C/CN(C(=O)CCCc2c(Cc3ccc(O)cc3)[nH]c3ccccc23)C2CCC(CC3CCC(N)CC3)CC2)cc1OC (stereo not given)	1.3	18	0.94	94
N=C(N)NCCN(Cc1ccc2ccccc2c1)C(=O)CCc1c[nH]c2ccccc12	149	17	14	65
NCCCCN(Cc1ccccc1)C(=O)CCCc1c[nH]c2ccccc12	17	20	12	38
C=C(Br)CN(C(=O)CCCc1c[nH]c2ccccc12)C1CCC(CC2CCC(N)CC2)CC1 (stereo in doubt; form 2)	5.5	9.4	1.4	29
N#Cc1ccc(CN(C(=O)CCCc2c[nH]c3ccccc23)C2CCC(CC3CCC(N)CC3)CC2)cc1 (stereo in doubt; form 2)	1.6	3.9	1.5	20
N#Cc1ccc(CN(C(=O)CCCc2c(Cc3ccc(O)cc3)[nH]c3ccccc23)C2CCC(CC3CCC(N)CC3)CC2)cc1 (stereo not given)	2.4	21	1.4	25
NCCCCCN(Cc1ccccc1)C(=O)CCCc1c(Cc2ccc(O)cc2)[nH]c2ccccc12	5	5.1	2	47
COc1cc(Cl)c(CN(C(=O)CCCc2c[nH]c3ccccc23)C2CCC(CC3CCC(N)CC3)CC2)cc1OC (stereo in doubt; form 2)	1.5	8.9	1.9	25
NCCCN(C/C(Cl)=C/c1ccccc1)C(=O)C(=O)c1c[nH]c2ccccc12	6.8	4.3	1	7.4
NCCCCCN(Cc1ccc2c(c1)OCO2)C(=O)CCCc1c[nH]c2ccccc12	12	23	5.5	38
NCCCN1CCN(CCCN(Cc2ccccc2)C(=O)CCCc2c[nH]c3ccccc23)CC1	16	22	6.4	52
NCCN(C(=O)COc1ccc2ccccc2c1)C1CCC2(CCCCC2)CC1	4.9	3.4	6	2.1
NC1CCCC(NC(=O)N[C@H]2CC[C@H](N(Cc3ccccc3)C(=O)CCCc3c[nH]c4ccccc34)CC2)C1 (stereo not given in full)	11	52	1.8	31
NC1CCC(CC2CCC(N(C/C(Cl)=C/c3ccccc3)C(=O)COc3ccc4ccccc4c3)CC2)CC1 (stereo in doubt; form 1)	4.7	–	1.9	–
Cc1cccc(CN(C(=O)CCCc2c[nH]c3ccccc23)C2CCC(CC3CCC(N)CC3)CC2)c1 (stereo not given)	3	12	1.3	22
NC1CCCC(NC(=O)NC2CCCC(N(Cc3ccccc3)C(=O)CCCc3c[nH]c4ccccc34)C2)C1 (stereo not given)	5.3	49	2.2	57
N[C@H]1CC[C@H](NC(=O)N[C@H]2CC[C@H](N(Cc3ccccc3)C(=O)CCCc3c[nH]c4ccccc34)CC2)CC1	25	176	11	99
NCCCN(Cc1ccc2ccccc2c1)C(=O)Cc1ccc2ccccc2c1	16	267	5.9	12
NC1CCC(CC2CCC(N(C/C(Cl)=C/c3ccccc3)C(=O)CCCc3c[nH]c4ccccc34)CC2)CC1 (stereo in doubt; form 5)	6	3.2	0.61	21
NCCCN(C(=O)/C=C/c1c[nH]c2ccccc12)C1CCc2ccccc2C1 (stereo not given)	11	12	6	48

Reference: ChEMBL document CHEMBL1149662, “Design and synthesis of a library of tertiary amides: evaluation as mimetics of the melanocortins' active core” (Bioorg Med Chem, 2007)
